Measurements taken from US8343459B2, “Method for production of radiation diagnostic imaging agent” (Nihon Medi-Physics Co., Ltd., priority 2007, dated 2013).

test: not given; conditions: Japanese Pharmaceutical Excipients Directory 2000; cited from earlier work

In order of falling “maximum dose in case of intravenous administration” value:
1. OC[C@H]1O[C@H](O[C@H]2[C@H](O)[C@@H](O)[C@H](O)O[C@@H]2CO)[C@H](O)[C@@H](O)[C@@H]1O [martose]  10 g
2. O=C[C@H](O)[C@@H](O)[C@H](O)[C@H](O)CO [glucose]  8 g
3. OC[C@@H](O)[C@@H](O)[C@H](O)[C@@H](O)CO [sorbitol]  1.5 g
4. OC[C@H]1O[C@@H](O[C@H]2[C@H](O)[C@@H](O)C(O)O[C@@H]2CO)[C@H](O)[C@@H](O)[C@H]1O (some centres unmarked) [lactose]  1.25 g
5. OC[C@@H](O)[C@@H](O)[C@H](O)[C@H](O)CO [mannitol]  1.2 g
6. O=C(CO)[C@@H](O)[C@H](O)[C@H](O)CO [fructose]  0.9 g
7. OC[C@@H](O)[C@H](O)[C@@H](O)CO [xylitol]  0.2 g

test: Relationship between pH and decrease of radiochemical purity (storage at 25° C., TLC analysis); type: physicochemical; conditions: pH value not more than 5.9, no pharmaceutical additives or buffers that prevent radiolysis
Experimental: Radioactivity of the obtained stock solution of anti-[^18F]-FACBC was measured, and then the stock solution was diluted with a physiological saline solution so as to have a radioactive concentration of about 510 MBq/mL at the time when experiment was initiated (0 hour in Table 9). 2.23 mL of this solution was aliquoted in a vial of 5 mL in volume, and a predetermined amount of a predetermined solution indicated in Table 8 was added thereto, to obtain a sample solution. The radioactive concentration of the sample solutions at the end of preparation was […].
The sample solution was stored in an electric thermostatic chamber adjusted to 25° C., and was then subjected to TLC analysis which was performed on the following conditions at the time of initiation of the experiment (0 hour) and 8.5 hours after the initiation of the experiment. Values of radiochemical purity were calculated in accordance with the following equation (1). Measurement of the radiochemical purity was repeated three times for each sample solution.
Mobile phase: acetonitrile/water/100% acetic acid=4/1/1
TLC plate: Silica Gel 60F254 (trade name, thickness: 0.25 mm, manufactured by Merck & Co., Inc.)
TLC scanner: Rita Star (manufactured by Raytest)
Number of analysis: Three times

With `NC1(C(=O)O)CC([18F])C1` (centres unmarked) [[^18F]FACBC, 3-[^18F]fluoro-1-aminocyclobutanecarboxylic acid] the stability against radiolysis was “stability thereof is maintained”.
